The record followed here is publication PMC11058299, “Synthesis, molecular docking evaluation for LOX and COX-2 inhibition and determination of in-vivo analgesic potentials of aurone derivatives” (Heliyon, 2024).

For the test, the target named is T1, LOX enzyme (Glycine max, UniProt P08170).
T1 construct: purchased Cayman Chemicals
T1 sequence (P08170 1-839): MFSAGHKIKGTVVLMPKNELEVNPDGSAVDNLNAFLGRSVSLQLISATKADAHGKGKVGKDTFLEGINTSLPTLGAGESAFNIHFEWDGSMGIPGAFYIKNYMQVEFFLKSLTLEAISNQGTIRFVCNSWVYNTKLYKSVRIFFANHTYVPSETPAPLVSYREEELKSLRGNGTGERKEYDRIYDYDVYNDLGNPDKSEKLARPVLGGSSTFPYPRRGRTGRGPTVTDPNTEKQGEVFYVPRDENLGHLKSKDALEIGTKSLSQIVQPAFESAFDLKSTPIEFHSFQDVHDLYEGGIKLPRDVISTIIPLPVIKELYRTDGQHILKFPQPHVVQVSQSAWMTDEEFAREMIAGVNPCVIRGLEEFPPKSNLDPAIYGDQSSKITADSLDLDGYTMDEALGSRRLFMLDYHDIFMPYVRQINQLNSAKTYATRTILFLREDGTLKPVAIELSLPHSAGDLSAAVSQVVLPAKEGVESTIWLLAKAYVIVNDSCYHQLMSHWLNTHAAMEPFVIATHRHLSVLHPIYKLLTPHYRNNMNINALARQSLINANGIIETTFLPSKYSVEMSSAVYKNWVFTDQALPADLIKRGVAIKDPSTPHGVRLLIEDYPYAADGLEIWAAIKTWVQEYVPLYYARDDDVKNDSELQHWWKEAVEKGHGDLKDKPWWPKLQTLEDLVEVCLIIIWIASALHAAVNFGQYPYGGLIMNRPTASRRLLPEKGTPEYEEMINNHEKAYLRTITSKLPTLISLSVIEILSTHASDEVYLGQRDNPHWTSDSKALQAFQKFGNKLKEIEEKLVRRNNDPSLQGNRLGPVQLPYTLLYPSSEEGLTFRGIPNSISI
The test is described as follows: LOX enzyme kinetic assay (Lineweaver-Burk). Type of test: biochemical. Conditions: Lineweaver-Burk plot. As to the method: The type of enzyme inhibition by compound (WE-4) was determined using the continuous spectrophotometric rate determination method. Various concentrations of the substrate (AA) were prepared in a Tween-20 solution within a 200 mM borate buffer at pH 9.0. A fixed concentration of LOX enzyme (10,000 units/ml) was prepared in a separate 200 mM borate buffer at pH 9.0. The enzyme kinetics were analyzed by employing the Lineweaver and Burk method while examining the substrate at different concentrations in the presence or absence of compound (WE-4).

Entries after “also recorded” stand apart in the source; their conditions may differ.

`COc1ccc(C=C2Oc3ccccc3C2=O)cc1OC` [WE-4, 2-(3,4-dimethoxybenzylidene)benzofuran-3(2H)-one]: the “type of enzyme inhibition” value is “non-competitive inhibitor; also recorded: non-competitive inhibition”.
